The values that follow are results of earlier work, collected in US12683165B2, “Positive electrode additive for lithium secondary battery, positive electrode active material comprising same, positive electrode, and lithium secondary battery” (LG ENERGY SOLUTION, LTD., priority 2021, dated 2026).

The conditions of the data set: ether-based or carbonate-based solvent of a lithium-sulfur secondary battery electrolyte solution.

Regarding `O=c1[nH]c(=O)c2c3ccc4cccc5c6cccc7ccc(c12)c(c76)c3c45` [BPI, benzo[ghi]peryleneimide], the “dissolution in electrolyte solution solvent” value is given as “tends to be dissolved”.
